Measured values: PubChem BioAssay AID276 (DTP/NCI, 2004)
Values joined by “and” are separate entries in the source; they are usually repeats but may differ in a detail not shown here. Equal values may be shown once. Inconclusive results and toxic doses are left out.

Test system: B6C3F1 mice, Lewis lung carcinoma iv, survival T/C
Experiment: NCI In Vivo Anticancer Drug Screen. Data for tumor model Lewis Lung Carcinoma (intravenous) in B6C3F1 mice
Settings: endpoint: median survival time, schedule: Q01DX009 (ip), higher = longer survival
Method in brief: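 Read-out is survival, expressed as the treated-group measurement over the vehicle control-group measurement. Animals bore a transplantable tumor and were given compound.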

[1] = dose: 25.0 mg/kg/injection, vehicle: Klucel (hydroxypropylcellulose) (HPC)
[2] = dose: 50.0 mg/kg/injection, vehicle: Klucel (hydroxypropylcellulose) (HPC)
[3] = dose: 12.5 mg/kg/injection, vehicle: saline with Tween-80
[4] = dose: 25.0 mg/kg/injection, vehicle: saline with Tween-80
[5] = dose: 50.0 mg/kg/injection, vehicle: saline with Tween-80
[6] = dose: 100.0 mg/kg/injection, vehicle: saline with Tween-80
[7] = dose: 200.0 mg/kg/injection, vehicle: saline with Tween-80
[8] = dose: 3.0 mg/kg/injection, vehicle: saline with Tween-80
[9] = dose: 6.0 mg/kg/injection, vehicle: saline with Tween-80
[10] = dose: 100.0 mg/kg/injection, vehicle: Klucel (hydroxypropylcellulose) (HPC)

CCOC(=O)c1ccc(NN=NCCF)cc1
T/C (dose: 3.0 mg/kg/injection, vehicle: distilled water + alcohol): 98 % of control | T/C (dose: 3.12 mg/kg/injection, vehicle: distilled water + Tween-80): 104 % of control | T/C (dose: 6.0 mg/kg/injection, vehicle: distilled water + alcohol): 96 % of control | T/C (dose: 6.25 mg/kg/injection, vehicle: distilled water + Tween-80): 113 % of control | T/C (dose: 12.5 mg/kg/injection, vehicle: distilled water + Tween-80): 98 % of control | T/C (dose: 12.5 mg/kg/injection, vehicle: distilled water + alcohol): 103 % of control | T/C (dose: 25.0 mg/kg/injection, vehicle: distilled water + Tween-80): 113 % of control | T/C (dose: 25.0 mg/kg/injection, vehicle: distilled water + alcohol): 101 % of control | T/C (dose: 50.0 mg/kg/injection, vehicle: distilled water + alcohol): 98 % of control | T/C (dose: 100.0 mg/kg/injection, vehicle: distilled water + alcohol): 98 % of control

CC1(C)CC(=O)C(CSC(=O)c2ccccc2)C(=O)C1
T/C (dose: 3.13 mg/kg/injection, vehicle: Klucel (hydroxypropylcellulose) (HPC)): 101 % of control | T/C (dose: 6.25 mg/kg/injection, vehicle: Klucel (hydroxypropylcellulose) (HPC)): 95 % of control | T/C (dose: 12.5 mg/kg/injection, vehicle: Klucel (hydroxypropylcellulose) (HPC)): 95 % of control | T/C [1]: 103 % of control | T/C [2]: 103 % of control

C=C1C(=O)OC2CC(C)C3C4OC4C(O)C3(C)C(O)C12 (centres undefined)
T/C (dose: 5.62 mg/kg/injection, vehicle: saline): 100 % of control | T/C (dose: 11.25 mg/kg/injection, vehicle: saline): 102 % of control | T/C (dose: 22.5 mg/kg/injection, vehicle: saline): 100 % of control | T/C (dose: 45.0 mg/kg/injection, vehicle: saline): 108 % of control | T/C (dose: 90.0 mg/kg/injection, vehicle: saline): 105 % of control

C/C(=N\NC(=S)N1CCN(c2ccccn2)CC1)c1ccccn1
T/C (dose: 6.25 mg/kg/injection, vehicle: water): 109 % of control | T/C (dose: 12.5 mg/kg/injection, vehicle: water): 104 % of control | T/C (dose: 25.0 mg/kg/injection, vehicle: water): 113 % of control

CCCCOCN(COCCCC)C(C)Cc1ccccc1 (centres undefined)
T/C [3]: 96 % of control | T/C [4]: 107 % of control | T/C [5]: 104 % of control | T/C [6]: 92 % of control | T/C [7]: 89 % of control

CCCCCCCCCCCCCCCCP(=O)(OCCOCCCCCC)OCCOCCCCCC
T/C (dose: 6.25 mg/kg/injection, vehicle: suspension in saline): 100 % of control | T/C (dose: 12.5 mg/kg/injection, vehicle: suspension in saline): 100 % of control | T/C (dose: 25.0 mg/kg/injection, vehicle: suspension in saline): 107 % of control | T/C (dose: 50.0 mg/kg/injection, vehicle: suspension in saline): 102 % of control

N#CC(=C1SCS1)[N+](=O)[O-]
T/C (dose: 0.37 mg/kg/injection, vehicle: saline with Tween-80): 98 % of control | T/C (dose: 0.75 mg/kg/injection, vehicle: saline with Tween-80): 107 % of control | T/C (dose: 1.5 mg/kg/injection, vehicle: saline with Tween-80): 106 % of control | T/C [8]: 109 % of control | T/C [9]: 106 % of control | T/C (dose: 12.0 mg/kg/injection, vehicle: saline with Tween-80): 92 % of control

CCCCCNc1ncnc2c(C)[nH]nc12
T/C [1]: 103 % of control | T/C [2]: 94 % of control | T/C [10]: 108 % of control

CN(C)C(=O)SC1=C(c2c(Cl)cccc2Cl)C(=O)c2ccccc21
T/C [1]: 102 % of control | T/C [2]: 110 % of control | T/C [10]: 105 % of control | T/C (dose: 200.0 mg/kg/injection, vehicle: Klucel (hydroxypropylcellulose) (HPC)): 108 % of control

O=NN(CCF)C(=O)NCCO
T/C (dose: 5.0 mg/kg/injection, vehicle: saline): 238 % of control | T/C (dose: 10.0 mg/kg/injection, vehicle: saline): 215 % of control

BrC1CC(Br)c2c1c1c(c3c2C(Br)CC3Br)C(Br)CC1Br (centres undefined)
T/C [3]: 99 % of control | T/C [4]: 103 % of control | T/C [5]: 92 % of control | T/C [7]: 121 % of control | T/C (dose: 400.0 mg/kg/injection, vehicle: saline with Tween-80): 112 % of control

COC(=O)NC1C(C)OC(OC2C/C=C(/C)C3C=CC4C(OC5CC(OC6CCC(OC7CC(O)C(OC8CCC(O)C(C)O8)C(C)O7)C(C)O6)C(OC(C)=O)C(C)O5)C(C)CC(C)C4C3(C)/C(O)=C3/C(=O)OC4(CC(C=O)=CC(O)C4/C=C\2C)C3=O)CC1(C)[N+](=O)[O-] (centres undefined)
T/C (dose: 1.25 mg/kg/injection, vehicle: water): 108 % of control | T/C (dose: 2.5 mg/kg/injection, vehicle: water): 97 % of control | T/C (dose: 5.0 mg/kg/injection, vehicle: water): 98 % of control

CCOC(=O)N1Cc2cc3cc(Cl)ccc3nc2C1
T/C (dose: 7.5 mg/kg/injection, vehicle: saline with Tween-80): 100 % of control | T/C (dose: 15.0 mg/kg/injection, vehicle: saline with Tween-80): 98 % of control | T/C (dose: 30.0 mg/kg/injection, vehicle: saline with Tween-80): 100 % of control | T/C (dose: 60.0 mg/kg/injection, vehicle: saline with Tween-80): 100 % of control | T/C (dose: 120.0 mg/kg/injection, vehicle: saline with Tween-80): 105 % of control

Nc1nc2ccc(NCc3ccc(C(=O)NC(CCC(=O)O)C(=O)O)cc3)cc2c(=O)[nH]1 (centres undefined)
T/C (dose: 6.25 mg/kg/injection, vehicle: saline with Tween-80): 111 % of control | T/C [3]: 97 % of control | T/C [4]: 100 % of control | T/C [5]: 116 % of control | T/C [6]: 119 % of control

CC(C)NCC(O)COc1ccc(O)c(O)c1 (centres undefined)
T/C (dose: 25.0 mg/kg/injection, vehicle: saline): 93 % of control and 96 % of control | T/C (dose: 50.0 mg/kg/injection, vehicle: saline): 98 % of control and 100 % of control | T/C (dose: 100.0 mg/kg/injection, vehicle: saline): 89 % of control and 96 % of control | T/C (dose: 200.0 mg/kg/injection, vehicle: saline): 98 % of control

O=C1c2cccc3cc([N+](=O)[O-])cc(c23)C(=O)N1CCN1CCCC1
T/C [8]: 106 % of control | T/C [9]: 115 % of control

O=[Te]=O
T/C (dose: 3.0 mg/kg/injection, vehicle: suspension in saline): 121 % of control | T/C (dose: 3.12 mg/kg/injection, vehicle: saline): 102 % of control | T/C (dose: 6.0 mg/kg/injection, vehicle: suspension in saline): 101 % of control | T/C (dose: 6.25 mg/kg/injection, vehicle: saline): 100 % of control | T/C (dose: 12.0 mg/kg/injection, vehicle: suspension in saline): 101 % of control | T/C (dose: 12.5 mg/kg/injection, vehicle: saline): 106 % of control | T/C (dose: 24.0 mg/kg/injection, vehicle: suspension in saline): 106 % of control | T/C (dose: 48.0 mg/kg/injection, vehicle: suspension in saline): 115 % of control
